Consider four molecules from US5244884A, “Thionated analogues of thyrotropin releasing hormone” (The United States of America as represented by the …, priority 1992, dated 1993).

Experiment [1] addresses T1, TRH receptor binding sites in pituitary (Rattus norvegicus, UniProt Q01717).
T1 construct: from tissue; host or cells: rat anterior pituitary membrane pellet (homogenate, 39000 g)
T1 sequence (Q01717 1-412): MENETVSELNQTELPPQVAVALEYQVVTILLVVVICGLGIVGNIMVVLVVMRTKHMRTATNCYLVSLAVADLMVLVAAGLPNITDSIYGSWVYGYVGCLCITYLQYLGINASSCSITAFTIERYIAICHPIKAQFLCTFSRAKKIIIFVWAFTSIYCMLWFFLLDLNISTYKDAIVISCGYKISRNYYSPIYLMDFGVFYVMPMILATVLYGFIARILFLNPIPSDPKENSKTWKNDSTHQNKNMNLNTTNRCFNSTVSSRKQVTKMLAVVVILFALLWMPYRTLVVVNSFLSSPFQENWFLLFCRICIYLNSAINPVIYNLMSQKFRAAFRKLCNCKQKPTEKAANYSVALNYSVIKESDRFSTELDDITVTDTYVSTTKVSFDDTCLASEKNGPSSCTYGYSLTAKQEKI
The experiment in a line: Receptor binding assay, [3H][3-Me-His2]-TRH competition, anterior pituitary homogenate. Also on record: species or system rat (Sprague-Dawley). To be noted: rat anterior pituitary membranes; [3H][3-Me-His2]-TRH 3 to 5 nM; 4-6 °C, 2.5 hours; mean ± S.E.M. On the procedure:
(§1) Adult, male Sprague-Dawley rats were obtained from Taconic Farms (Germantown, N.Y.) and housed at controlled temperature (22° C.) and light cycle (12/12 h) with free access to food and water. On the experimental day, six to eight animals were rapidly decapitated and their brains quickly removed and placed on a cold plate. Anterior pituitary and cortex tissue samples were obtained and processed immediately for receptor-binding experiments.
(§2) All steps of the tissue preparation and binding assays were done on ice. After weighing, pooled tissue samples were homogenized in 25 ml of ice-cold sodium phosphate buffer (0.1M, pH 7.4-7.5), using a Brinkmann Polytron homogenizer (setting 7, 15-20 s). The homogenates were then centrifuged in a refrigerated Sorvall RC5B centrifuge at 39000 g for 30 minutes. The supernatants were discharged and the pellets were resuspended to a concentration of 50 (pituitary) or 100 mg wet weight/ml (ww/ml, cortex) in ice-cold sodium phosphate buffer containing 177 μM Bacitracin.
(§3) Competition experiments were performed by incubating mixtures of tissue resuspensions, [3H][3-Me-His2]-TRH (87 Ci/mmol, Amersham) in 3 to 5 nM final concentration and increasing amounts of analog in a total volume of 100 μl/vial at 4° to 6° C. for 2.5 hours. In order to limit loss of peptides by adherence to glass, 0.05% bovine serum albumin was included in the assays. Nonspecific binding was determined in the presence of 10 μM TRH. The incubation period was terminated by vacuum filtration of the incubation mixture through Whatman GF/B glass filters, using a 48-well cell harvester (Brandel Inc., Gaithersburg, Md.), followed by four rinses with 4 ml each of ice-cold 0.9% NaCl solution. Filters were then placed in scintillation vials and kept overnight in 5 ml of watermiscible scintillation fluid (Beckman Ready-SolvTM HP) each. Bound radioactivity was measured after thorough shaking of the vials on the following day in an LKB 1218 Rackbeta liquid scintillation counter with automatic correction for tritium quenching. Specific binding was calculated as total binding minus nonspecific binding. Inhibition constants, Ki, were determined according to Cheng and Prusoff (1973) using the radioligand-binding analysis software LIGAND (Elsevier-Biosoft; Munson and Rodbard, 1980). Unless otherwise stated, data in tables and figures represent mean values±S.E.M. (standard error of the mean of separate experiments done in duplicate).

Experiment [2] concerns the target TRH receptor binding sites in cortex. The experiment in a line: Receptor binding assay, [3H][3-Me-His2]-TRH competition, cortex homogenate. Particulars: rat cortex membranes; [3H][3-Me-His2]-TRH 3 to 5 nM; 4-6 °C, 2.5 hours; mean ± S.E.M. Also on record: species or system rat (Sprague-Dawley). On the procedure:
as §1, §2
as §3, with “The incubation period was terminated by vacuum filtration of the incubation mixture through Whatman GF/B glass filters, using a 48-well cell harvester (Brandel Inc., Gaithersburg, Md.), followed by four rinses with 4 ml each of ice-cold 0.9% NaCl solution.” left out, “Unless otherwise stated, data in tables and figures represent mean values±S.E.M. (standard error of the mean of separate experiments done in duplicate).” left out

The test system of experiment [3] is TSH release. Particulars: relative to TRH; cited from earlier work.
The subject of experiment [4] is TRH receptor. To be noted: compared with natural TRH; reported by Kruszynski; cited from earlier work.
The test system of experiment [5] is TSH release. To be noted: compared with natural TRH; reported by Kruszynski; cited from earlier work.

Turning to `NC(=S)[C@@H]1CCCN1C(=O)[C@H](Cc1c[nH]cn1)NC(=O)[C@@H]1CCC(=S)N1` [Example 2, L-thiopyroglutamyl-L-histidyl-L-proline thioamide], the Ki was 85.4 ± 17.8 nM in experiment [1] and 86.1 ± 6.3 nM in experiment [2]. Also, the “potency in stimulating TSH release compared with TRH” value in experiment [3] was “more potent than TRH”.
For `NC(=O)[C@@H]1CCCN1C(=O)[C@H](Cc1c[nH]cn1)NC(=O)[C@@H]1CCC(=S)N1` [Example 1, L-thiopyroglutamyl-L-histidyl-L-oroline amide], in experiment [1], the Ki is 31.9 ± 2.9 nM.
As to `NC(=O)[C@@H]1CCCN1C(=O)[C@H](Cc1c[nH]cn1)NC(=O)[C@@H]1CCC(=O)N1` [TRH, L-pyroglutamyl-L-histidyl-L-proline-amide, reference compound], the Ki in experiment [1] was determined as 24.1 ± 14.2 nM; in experiment [2], 26.1 ± 4.5 nM.
`NC(=S)[C@@H]1CCCN1C(=O)[C@H](Cc1c[nH]cn1)NC(=O)[C@@H]1CCC(=O)N1` [Example 3, L-pyroglutamyl-L-histidyl-L-proline thioamide]: the values for the Ki in experiment [1] and in experiment [2] were 8 ± 0.2 nM and 93.1 ± 16.5 nM, respectively. Further, the “TRH receptor binding affinity” value in experiment [4] is reported as “matching that of natural TRH”. Besides, the TSH releasing activity entry in experiment [5] is given as “matching that of natural TRH”.

What is called Ki is a dissociation constant, usually derived from enzyme kinetics or from competition with a known ligand. Read a high Ki as weaker binding.
